Source: publication PMC2851739 (General and comparative endocrinology, 2009)
Ends that are not written are not given here.

System: AeaETHRs
Assay: flash luminescence
Format: cell-based, Aedes aegypti
Conditions: peptides with related sequences

| Substance | activity when tested at 10 μM |
| --- | --- |
| FMRFamide | inactive |
| corazonin (QTFQYSRGWTN; ends and bridges not checked; UniProt Q26377 20-30, looked up) | inactive |
| ghrelin (GSSFLSPEHQRVQQRKESKKPPAKLQPR; ends and bridges not checked; UniProt Q9UBU3 24-51, looked up) | inactive |
